From PubChem BioAssay AID1259407 (Chemical Carcinogenesis Research Information System (CCRIS), 2018)
Activity calls are given as the source filed them. The rule behind the calls is not given here.

System: CCRIS mutagenicity, Ames/micronucleus/aberration tests
Assay: CCRIS mutagenicity studies
[1] = Test System: AMES SALMONELLA TYPHIMURIUM, Strain/Indicator: TA100, Metabolic Activation: NONE, Method: PREINCUBATION
[2] = Test System: AMES SALMONELLA TYPHIMURIUM, Strain/Indicator: TA100, Metabolic Activation: NONE, Method: STANDARD PLATE
[3] = Test System: AMES SALMONELLA TYPHIMURIUM, Strain/Indicator: TA98, Metabolic Activation: NONE, Method: PREINCUBATION
[4] = Test System: AMES SALMONELLA TYPHIMURIUM, Strain/Indicator: TA98, Metabolic Activation: NONE, Method: STANDARD PLATE
[5] = Test System: AMES SALMONELLA TYPHIMURIUM, Strain/Indicator: TA98, Metabolic Activation: RAT, LIVER, S-9, AROCLOR 1254, Method: STANDARD PLATE
[6] = Test System: AMES SALMONELLA TYPHIMURIUM, Strain/Indicator: TA100, Metabolic Activation: RAT, LIVER, S-9, AROCLOR 1254, Method: STANDARD PLATE
[7] = Test System: AMES SALMONELLA TYPHIMURIUM, Strain/Indicator: TA1535, Metabolic Activation: NONE, Method: STANDARD PLATE
[8] = Test System: AMES SALMONELLA TYPHIMURIUM, Strain/Indicator: TA1535, Metabolic Activation: RAT, LIVER, S-9, AROCLOR 1254, Method: STANDARD PLATE
[9] = Test System: AMES SALMONELLA TYPHIMURIUM, Strain/Indicator: TA1537, Metabolic Activation: NONE, Method: STANDARD PLATE
[10] = Test System: AMES SALMONELLA TYPHIMURIUM, Strain/Indicator: TA1537, Metabolic Activation: RAT, LIVER, S-9, AROCLOR 1254, Method: STANDARD PLATE
[11] = Test System: AMES SALMONELLA TYPHIMURIUM, Strain/Indicator: TA1538, Metabolic Activation: NONE, Method: STANDARD PLATE
[12] = Test System: AMES SALMONELLA TYPHIMURIUM, Strain/Indicator: TA1538, Metabolic Activation: RAT, LIVER, S-9, AROCLOR 1254, Method: STANDARD PLATE

What does the source list for `N[C@@H](CCC(=O)N[C@@H](CS/C(Cl)=C(\Cl)C(Cl)=C(Cl)Cl)C(=O)NCC(=O)O)C(=O)O`?
mutagenic call [1]: active; positive; mutagenic call [2]: inactive; negative; mutagenic call (Test System: AMES SALMONELLA TYPHIMURIUM, Strain/Indicator: TA100, Metabolic Activation: RAT, KIDNEY, CYTOSOL, Method: PREINCUBATION): active; positive; mutagenic call (Test System: AMES SALMONELLA TYPHIMURIUM, Strain/Indicator: TA100, Metabolic Activation: RAT, KIDNEY, MICROSOMES, Method: PREINCUBATION): active; positive; mutagenic call (Test System: AMES SALMONELLA TYPHIMURIUM, Strain/Indicator: TA100, Metabolic Activation: RAT, KIDNEY, MITOCHONDRIA, Method: PREINCUBATION): active; positive; mutagenic call (Test System: AMES SALMONELLA TYPHIMURIUM, Strain/Indicator: TA100, Metabolic Activation: RAT, KIDNEY, S-9, AROCLOR 1254, Method: STANDARD PLATE): active; positive

With `O=[N+]([O-])c1ccc2nc3ccc([N+](=O)[O-])cc3nc2c1` as the molecule, how does the mutagenic call (Test System: AMES SALMONELLA TYPHIMURIUM, Strain/Indicator: TA98(NR), Metabolic Activation: NONE, Method: PREINCUBATION) read?
Its mutagenic call is “active; positive”.

And the mutagenic call [3]?
The mutagenic call was “active; positive”.

Which mutagenic call [4] does the source give for `O=C(c1ccccc1)C1OC1c1ccccc1` (stereo not drawn) here?
The mutagenic call was “inactive; negative”.

And the mutagenic call [5]?
Its mutagenic call is “inactive; negative”.

What about the mutagenic call [2] of the same molecule?
Its mutagenic call is “active; positive”.

What about the mutagenic call [6] of the same molecule?
The mutagenic call was “active; positive”.

For `CCCCCOc1ccc(N=O)cc1`, which mutagenic call [2] is on record?
The mutagenic call was “active; positive”.

With `CCn1cc(C(=O)O)c(=O)c2cc(F)c(N3CCNCC3)cc21` as the molecule, how does the mutagenic call (End Point: In vitro micronucleus, Test System: WTK-1 human lymphoma cells, Metabolic Activation: None) read?
The mutagenic call was “active; positive”.

And the mutagenic call [3]?
Its mutagenic call is “inactive; negative”.

What about the mutagenic call (Test System: AMES SALMONELLA TYPHIMURIUM, Strain/Indicator: TA98, Metabolic Activation: RAT LIVER S-9, AROCLOR 1254, Method: PREINCUBATION) of the same molecule?
Its mutagenic call is “inactive; negative”.

And the mutagenic call [1]?
The mutagenic call was “inactive; negative”.

And the mutagenic call (Test System: AMES SALMONELLA TYPHIMURIUM, Strain/Indicator: TA100, Metabolic Activation: RAT LIVER S-9, AROCLOR 1254, Method: PREINCUBATION)?
The mutagenic call was “inactive; negative”.

What about the mutagenic call (Test System: AMES SALMONELLA TYPHIMURIUM, Strain/Indicator: TA102, Metabolic Activation: NONE, Method: PREINCUBATION) of the same molecule?
The mutagenic call was “active; positive”.

What about the mutagenic call (Test System: AMES SALMONELLA TYPHIMURIUM, Strain/Indicator: TA102, Metabolic Activation: NONE, Method: STANDARD PLATE) of the same molecule?
The mutagenic call was “active; positive”.

And the mutagenic call (Test System: AMES SALMONELLA TYPHIMURIUM, Strain/Indicator: TA102, Metabolic Activation: RAT LIVER S-9, AROCLOR 1254, Method: PREINCUBATION)?
The mutagenic call was “active; positive”.

What about the mutagenic call (Test System: AMES SALMONELLA TYPHIMURIUM, Strain/Indicator: TA102, Metabolic Activation: RAT LIVER S-9, AROCLOR 1254, Method: STANDARD PLATE) of the same molecule?
Its mutagenic call is “active; positive”.

What about the mutagenic call (Test System: AMES SALMONELLA TYPHIMURIUM, Strain/Indicator: TA104, Metabolic Activation: NONE, Method: PREINCUBATION) of the same molecule?
Its mutagenic call is “active; positive”.

What about the mutagenic call (Test System: AMES SALMONELLA TYPHIMURIUM, Strain/Indicator: TA104, Metabolic Activation: RAT LIVER S-9, AROCLOR 1254, Method: PREINCUBATION) of the same molecule?
The mutagenic call was “active; positive”.

And the mutagenic call (Test System: AMES SALMONELLA TYPHIMURIUM, Strain/Indicator: UHT8414, Metabolic Activation: NONE, Method: PREINCUBATION)?
The mutagenic call was “inactive; negative”.

And the mutagenic call (Test System: AMES SALMONELLA TYPHIMURIUM, Strain/Indicator: UHT8414, Metabolic Activation: RAT LIVER S-9, AROCLOR 1254, Method: PREINCUBATION)?
The mutagenic call was “inactive; negative”.

What about the mutagenic call (Test System: Ames Salmonella typhimurium, Strain/Indicator: TA102, Metabolic Activation: Rat, Liver, S9, Aroclor 1254, Method: Preincubation) of the same molecule?
The mutagenic call was “active; positive. vitamin e (alpha-tocoferol) induced a statistically significant reduct”.

And the mutagenic call (Test System: CHINESE HAMSTER V-79, Strain/Indicator: V-79 (HPRT)/6-THIOGUANINE, Metabolic Activation: NONE)?
Its mutagenic call is “inactive; negative”.

And the mutagenic call (Test System: MOUSE LYMPHOMA, Strain/Indicator: L5178Y (HPRT)/6-THIOGUANINE, Metabolic Activation: NONE, Method: FLUCTUATION TEST)?
Its mutagenic call is “inactive; negative”.

And the mutagenic call (Test System: MOUSE LYMPHOMA, Strain/Indicator: L5178Y (TK+/TK-), Metabolic Activation: NONE, Method: FLUCTUATION TEST)?
Its mutagenic call is “inactive; negative”.

With `CCCCCN(N=O)C(N)=O` as the molecule, how does the mutagenic call (Test System: E. COLI B, Strain/Indicator: H/R30R, Metabolic Activation: NONE) read?
Its mutagenic call is “active; positive”.

What about the mutagenic call (Test System: E. COLI B, Strain/Indicator: HS30R, Metabolic Activation: NONE) of the same molecule?
The mutagenic call was “active; positive”.

Which results are given for `O=[N+]([O-])c1ccc(OC2CO2)cc1` (stereo not drawn)?
mutagenic call [2]: active; positive; mutagenic call [7]: active; positive

`O=[N+]([O-])c1c2c(cc3c1ccc1ccccc13)C=C[C@@H](O)[C@@H]2O` was tested. Which mutagenic call [4] did it give?
Its mutagenic call is “active; positive”.

And the mutagenic call [2]?
The mutagenic call was “inactive; negative”.

Which mutagenic call [3] does the source give for `COC(=O)/C(C#N)=C/c1ccc(Br)o1` here?
Its mutagenic call is “inactive; negative”.

For `COC/C(=C/c1ccccc1)OC`, which mutagenic call (Test System: AMES SALMONELLA TYPHIMURIUM, Strain/Indicator: TA97, Metabolic Activation: NONE, Method: STANDARD PLATE) is on record?
The mutagenic call was “inactive; negative”.

What about the mutagenic call (Test System: AMES SALMONELLA TYPHIMURIUM, Strain/Indicator: TA97, Metabolic Activation: RAT, LIVER, S-9, AROCLOR 1254, Method: STANDARD PLATE) of the same molecule?
The mutagenic call was “inactive; negative”.

And the mutagenic call [4]?
The mutagenic call was “inactive; negative”.

What about the mutagenic call [5] of the same molecule?
Its mutagenic call is “inactive; negative”.

And the mutagenic call [2]?
Its mutagenic call is “inactive; negative”.

And the mutagenic call [6]?
Its mutagenic call is “inactive; negative”.

And the mutagenic call [7]?
Its mutagenic call is “inactive; negative”.

What about the mutagenic call [8] of the same molecule?
The mutagenic call was “inactive; negative”.

And the mutagenic call [9]?
Its mutagenic call is “active; positive”.

What about the mutagenic call [10] of the same molecule?
The mutagenic call was “inactive; negative”.

What about the mutagenic call [11] of the same molecule?
The mutagenic call was “inactive; negative”.

What about the mutagenic call [12] of the same molecule?
Its mutagenic call is “inactive; negative”.

How did the mutagenic call (Test System: AMES SALMONELLA TYPHIMURIUM, Strain/Indicator: TA98, Metabolic Activation: HAMSTER, LIVER, S-9, AROCLOR 1254, Method: STANDARD PLATE) turn out when `Nc1ccc(S(=O)(=O)Nc2cnc3c(Cl)cccc3n2)cc1` was run?
Its mutagenic call is “inactive; negative”.

What about the mutagenic call [4] of the same molecule?
Its mutagenic call is “inactive; negative”.

What about the mutagenic call [5] of the same molecule?
Its mutagenic call is “inactive; negative”.

And the mutagenic call (Test System: AMES SALMONELLA TYPHIMURIUM, Strain/Indicator: TA100, Metabolic Activation: HAMSTER, LIVER, S-9, AROCLOR 1254, Method: STANDARD PLATE)?
The mutagenic call was “inactive; negative”.

And the mutagenic call [2]?
The mutagenic call was “inactive; negative”.

What about the mutagenic call [6] of the same molecule?
The mutagenic call was “inactive; negative”.

What about the mutagenic call (Test System: AMES SALMONELLA TYPHIMURIUM, Strain/Indicator: TA1535, Metabolic Activation: HAMSTER, LIVER, S-9, AROCLOR 1254, Method: STANDARD PLATE) of the same molecule?
The mutagenic call was “inactive; negative”.

What about the mutagenic call [7] of the same molecule?
The mutagenic call was “inactive; negative”.

What about the mutagenic call [8] of the same molecule?
Its mutagenic call is “inactive; negative”.

What about the mutagenic call (Test System: AMES SALMONELLA TYPHIMURIUM, Strain/Indicator: TA1537, Metabolic Activation: HAMSTER, LIVER, S-9, AROCLOR 1254, Method: STANDARD PLATE) of the same molecule?
The mutagenic call was “inactive; negative”.

And the mutagenic call [9]?
The mutagenic call was “inactive; negative”.

And the mutagenic call [10]?
The mutagenic call was “inactive; negative”.

And the mutagenic call (Test System: AMES SALMONELLA TYPHIMURIUM, Strain/Indicator: TA1538, Metabolic Activation: HAMSTER, LIVER, S-9, AROCLOR 1254, Method: STANDARD PLATE)?
The mutagenic call was “inactive; negative”.

What about the mutagenic call [11] of the same molecule?
The mutagenic call was “inactive; negative”.

And the mutagenic call [12]?
Its mutagenic call is “inactive; negative”.

And the mutagenic call (Test System: MOUSE LYMPHOMA, Strain/Indicator: L5178Y (TK+/TK-), Metabolic Activation: NONE, Method: SUSPENSION/PLATE)?
Its mutagenic call is “inactive; negative. reevaluation of results: negative”.

What about the mutagenic call (Test System: MOUSE LYMPHOMA, Strain/Indicator: L5178Y (TK+/TK-), Metabolic Activation: RAT, LIVER, S-9, AROCLOR 1254, Method: SUSPENSION/PLATE) of the same molecule?
Its mutagenic call is “inactive; negative. reevaluation of results: negative”.

Which mutagenic call (Test System: AMES SALMONELLA TYPHIMURIUM, Strain/Indicator: TA98, Metabolic Activation: NONE', Method: STANDARD PLATE) does the source give for `CC(=O)Oc1c(OC(C)=O)c2c([N+](=O)[O-])ccc3c4ccccc4c4cccc1c4c23` here?
The mutagenic call was “active; positive”.

What about the mutagenic call [2] of the same molecule?
The mutagenic call was “active; positive”.
